# Source: patent publication US8835472B2, “Compounds, pharmaceutical compositions and uses thereof” (Boehringer Ingelheim International GmbH, priority 2010, dated 2014)
# Biological target: human ACC2 (Homo sapiens (Human), UniProt O00763)
# Assay: ACC2 assay, spectrophotometric 384 well assay (NADH-linked, coupled lactate dehydrogenase/pyruvate kinase reaction)
# Format: biochemical
# Settings: hACC2 construct lacking the 128 N-terminal amino acids; 25° C., 340 nm over 15 minutes
# Summary of the method: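 Kinetic NADH-linked assay (pyruvate kinase/lactate dehydrogenase coupling) with baculovirus-expressed hACC2 missing its first 128 amino acids. Started with 500 μM ATP and 200 μM each NADH and acetyl-CoA; slope followed 15 min at 25 °C, pH 7.5. No-acetyl-CoA wells define 0%; IC50 by nonlinear regression.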
# Chain of human ACC2 (O00763 129-2458): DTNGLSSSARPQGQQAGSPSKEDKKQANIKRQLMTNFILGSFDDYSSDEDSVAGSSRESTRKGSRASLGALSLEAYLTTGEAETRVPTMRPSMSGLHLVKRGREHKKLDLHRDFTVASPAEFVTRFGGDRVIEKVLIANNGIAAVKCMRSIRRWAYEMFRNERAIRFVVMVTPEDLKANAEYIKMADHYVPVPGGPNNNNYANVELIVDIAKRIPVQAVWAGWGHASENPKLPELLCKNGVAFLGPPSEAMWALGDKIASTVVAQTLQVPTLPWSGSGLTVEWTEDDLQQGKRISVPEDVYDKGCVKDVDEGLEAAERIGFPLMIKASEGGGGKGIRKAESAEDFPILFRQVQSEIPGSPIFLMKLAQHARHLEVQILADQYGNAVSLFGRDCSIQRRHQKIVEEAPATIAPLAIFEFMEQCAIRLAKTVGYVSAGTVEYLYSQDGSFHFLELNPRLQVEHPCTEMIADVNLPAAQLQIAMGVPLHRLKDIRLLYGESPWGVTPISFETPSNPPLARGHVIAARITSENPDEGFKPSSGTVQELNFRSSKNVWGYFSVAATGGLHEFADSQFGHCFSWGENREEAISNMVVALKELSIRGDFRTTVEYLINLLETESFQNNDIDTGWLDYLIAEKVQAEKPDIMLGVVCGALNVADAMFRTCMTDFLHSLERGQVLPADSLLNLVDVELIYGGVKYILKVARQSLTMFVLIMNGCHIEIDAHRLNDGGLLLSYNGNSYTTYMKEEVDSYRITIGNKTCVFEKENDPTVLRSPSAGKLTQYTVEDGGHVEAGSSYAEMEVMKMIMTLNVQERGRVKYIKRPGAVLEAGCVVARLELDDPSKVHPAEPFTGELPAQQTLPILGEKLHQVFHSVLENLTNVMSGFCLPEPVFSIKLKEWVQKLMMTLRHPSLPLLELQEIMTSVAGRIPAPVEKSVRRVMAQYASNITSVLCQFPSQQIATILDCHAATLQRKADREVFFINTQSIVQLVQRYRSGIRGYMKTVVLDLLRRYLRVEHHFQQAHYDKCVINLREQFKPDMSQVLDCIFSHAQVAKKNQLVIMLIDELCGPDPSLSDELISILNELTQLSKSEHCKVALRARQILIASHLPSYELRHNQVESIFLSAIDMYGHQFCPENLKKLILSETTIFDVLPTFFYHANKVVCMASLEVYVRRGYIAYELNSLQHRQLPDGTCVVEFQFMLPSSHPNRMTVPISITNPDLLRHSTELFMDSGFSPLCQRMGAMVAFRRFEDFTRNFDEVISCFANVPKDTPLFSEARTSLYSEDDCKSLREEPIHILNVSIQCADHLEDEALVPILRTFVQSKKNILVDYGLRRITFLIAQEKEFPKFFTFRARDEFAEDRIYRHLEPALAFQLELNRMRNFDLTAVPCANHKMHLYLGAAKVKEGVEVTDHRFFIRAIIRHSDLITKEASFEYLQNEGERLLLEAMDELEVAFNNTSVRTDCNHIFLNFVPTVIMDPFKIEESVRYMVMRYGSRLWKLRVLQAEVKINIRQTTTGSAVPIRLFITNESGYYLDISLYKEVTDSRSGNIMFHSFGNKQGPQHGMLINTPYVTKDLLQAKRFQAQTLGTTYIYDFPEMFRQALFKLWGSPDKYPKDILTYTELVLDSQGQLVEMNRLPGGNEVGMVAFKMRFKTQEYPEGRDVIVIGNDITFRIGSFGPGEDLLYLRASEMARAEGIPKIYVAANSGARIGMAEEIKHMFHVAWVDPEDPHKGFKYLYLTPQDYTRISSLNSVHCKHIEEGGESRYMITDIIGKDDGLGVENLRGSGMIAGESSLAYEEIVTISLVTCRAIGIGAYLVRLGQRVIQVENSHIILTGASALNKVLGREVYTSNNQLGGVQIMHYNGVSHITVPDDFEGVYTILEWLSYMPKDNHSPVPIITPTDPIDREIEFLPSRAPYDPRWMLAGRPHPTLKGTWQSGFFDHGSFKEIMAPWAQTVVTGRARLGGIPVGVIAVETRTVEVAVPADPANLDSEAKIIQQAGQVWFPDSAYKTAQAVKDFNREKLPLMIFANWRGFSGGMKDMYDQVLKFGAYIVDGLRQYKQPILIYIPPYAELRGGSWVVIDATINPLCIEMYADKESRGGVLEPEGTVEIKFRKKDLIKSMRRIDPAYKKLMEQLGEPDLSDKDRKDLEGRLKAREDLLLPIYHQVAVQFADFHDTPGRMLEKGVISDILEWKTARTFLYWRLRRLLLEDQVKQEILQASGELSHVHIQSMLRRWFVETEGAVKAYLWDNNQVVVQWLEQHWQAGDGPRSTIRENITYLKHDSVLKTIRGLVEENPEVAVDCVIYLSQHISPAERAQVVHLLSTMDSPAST
row,SMILES,IC50 [nM]
1,CC(=O)NC(C)Cc1ccc(C#Cc2cccc(C(=O)NCc3ccccn3)c2)cc1 (centres unmarked) [Example 8.23],10900
2,CC(=O)NC(C)Cc1ccc(C#Cc2cccc(C(=O)NCCN3CCOCC3)c2)cc1 (centres unmarked) [Example 8.24],30000
3,CCCN(C)C(=O)c1cccc(C#Cc2ccc(CC(C)NC(C)=O)cc2)c1 (centres unmarked) [Example 8.25],2400
4,CC(=O)NC(C)Cc1ccc(C#Cc2cccc(C(=O)NC3CCCC3)c2)cc1 (centres unmarked) [Example 8.26],1500
5,COCCNC(=O)c1cccc(C#Cc2ccc(CC(C)NC(C)=O)cc2)c1 (centres unmarked) [Example 8.27],11100
6,CC(=O)NC(C)Cc1ccc(C#Cc2cccc(C(=O)NCC3CC3)c2)cc1 (centres unmarked) [Example 8.28],5000
7,CC(=O)NC(C)Cc1ccc(C#Cc2cccc(C(=O)NCC3CCCO3)c2)cc1 (centres unmarked) [Example 8.29],4500
8,CC(=O)NC(C)Cc1ccc(C#Cc2cccc(C(=O)NCC(C)C)c2)cc1 (centres unmarked) [Example 8.30],2800
9,CC(=O)NC(C)Cc1ccc(C#Cc2cccc(C(=O)N3CCC(c4ccncc4)C3)c2)cc1 (centres unmarked) [Example 8.31],14500
10,CC(=O)NC(C)Cc1ccc(C#Cc2cccc(C(=O)N3CCCCC3)c2)cc1 (centres unmarked) [Example 8.32],2100
11,CC(=O)NC(C)Cc1ccc(C#Cc2cccc(C(=O)N(C)C3CCCC3)c2)cc1 (centres unmarked) [Example 8.33],2000
12,CC(=O)NC(C)Cc1ccc(C#Cc2cccc(C(=O)NC3CCC3)c2)cc1 (centres unmarked) [Example 8.34],1200
13,CCC(C)NC(=O)c1cccc(C#Cc2ccc(CC(C)NC(C)=O)cc2)c1 (centres unmarked) [Example 8.35],2400
14,CC(=O)NC(C)Cc1ccc(C#Cc2cccc(C(=O)N3CCC(C)(C)CC3)c2)cc1 (centres unmarked) [Example 8.37],1600
15,CCNC(=O)c1cccc(C#Cc2ccc(CC(C)NC(C)=O)cc2)c1 (centres unmarked) [Example 8.38],14300
16,CC(=O)NC(C)Cc1ccc(C#Cc2cccc(C(=O)N(C)Cc3ccncc3)c2)cc1 (centres unmarked) [Example 8.39],13400
17,CC(=O)NC(C)Cc1ccc(C#Cc2cccc(C(=O)N(C)c3ccccc3)c2)cc1 (centres unmarked) [Example 8.40],6700
18,CC(=O)NC(C)Cc1ccc(C#Cc2cccc(C(=O)NC(C)c3ccccc3)c2)cc1 (centres unmarked) [Example 8.41],23300
19,CC(=O)NC(C)Cc1ccc(C#Cc2cccc(C(=O)N3Cc4ccccc4C3)c2)cc1 (centres unmarked) [Example 8.42],30000
20,CC(=O)NC(C)Cc1ccc(C#Cc2ccc(C(=O)N(C)C)cc2)cc1 (centres unmarked) [Example 8.43],3900
21,CNC(=O)c1ccc(C#Cc2ccc(CC(C)NC(C)=O)cc2)cc1 (centres unmarked) [Example 8.44],22100

row,SMILES,IC50 [nM]
1,CC(=O)NC(C)Cc1ccc(C#Cc2ccc(C(=O)N3CCCC3)cc2)cc1 (centres unmarked) [Example 8.45],1400
2,CC(=O)NC(C)Cc1ccc(C#Cc2ccc(C(=O)N3CCN(C)CC3)cc2)cc1 (centres unmarked) [Example 8.46],11300
3,CC(=O)NC(C)Cc1ccc(C#Cc2cccc(C(=O)N(C)CC(=O)OC(C)(C)C)c2)cc1 (centres unmarked) [Example 8.47],12100
4,CC(=O)NC(C)Cc1ccc(C#Cc2cccc(C(=O)N3CCCC3)c2)cc1 (centres unmarked) [Example 8.48],6200
5,CC(=O)NC(C)Cc1ccc(C#Cc2cccc(C(=O)N3CCC(C(=O)OC(C)(C)C)C3)c2)cc1 (centres unmarked) [Example 8.49],22000
6,CC(=O)NC(C)Cc1ccc(C#Cc2cccc(C(=O)N3CCc4ccccc4C3)c2)cc1 (centres unmarked) [Example 8.51],30000
7,CC(=O)NC(C)Cc1ccc(C#Cc2cccc(C(=O)N3CCN(C)CC3)c2)cc1 (centres unmarked) [Example 8.54],25100
8,"CCC(CC)Oc1ccc(C#Cc2ccc(CC(C)NC(C)=O)cc2)cc1 (centres unmarked) [Example 9.1, N-(1-(4-((4-(pentan-3yloxy)phenyl)ethynyl)phenyl)propan-2-yl)acetamide]",220
9,CC(=O)NC(C)Cc1ccc(C#Cc2ccc(OC3CCCC3)cc2)cc1 (centres unmarked) [Example 9.2],100
10,CCCCOc1ccc(C#Cc2ccc(CC(C)NC(C)=O)cc2)cc1 (centres unmarked) [Example 9.3],90
11,COCCOc1ccc(C#Cc2ccc(CC(C)NC(C)=O)cc2)cc1 (centres unmarked) [Example 9.4],610
12,CC(=O)NC(C)Cc1ccc(C#Cc2ccc(OCCN3CCCCC3)cc2)cc1 (centres unmarked) [Example 9.5],22100
13,CC(=O)NC(C)Cc1ccc(C#Cc2ccc(OCCN3CCOCC3)cc2)cc1 (centres unmarked) [Example 9.6],9400
14,CC(=O)NC(C)Cc1ccc(C#Cc2ccc(OC3CCN(C)C3)cc2)cc1 (centres unmarked) [Example 9.7],1900
15,CCC(CC)Oc1cccc(C#Cc2ccc(CC(C)NC(C)=O)cc2)c1 (centres unmarked) [Example 9.8],810
16,CC(=O)NC(C)Cc1ccc(C#Cc2cccc(OCCN3CCCCC3)c2)cc1 (centres unmarked) [Example 9.9],9200
17,CC(=O)NC(C)Cc1ccc(C#Cc2ccc(OC3CNC3)cc2)cc1 (centres unmarked) [Example 9.10],12200
18,CC(=O)NC(C)Cc1ccc(C#Cc2ccc(OCC3(C)CC3)cc2)cc1 (centres unmarked) [Example 9.11],180
19,CC(=O)NC(C)Cc1ccc(C#Cc2ccc(OC3CCOCC3)cc2)cc1 (centres unmarked) [Example 9.12],160
20,COCCCOc1cccc(C#Cc2ccc(CC(C)NC(C)=O)cc2)c1 (centres unmarked) [Example 9.13],630
21,CC(=O)NC(C)Cc1ccc(C#Cc2cccc(OCc3cn(C)cn3)c2)cc1 (centres unmarked) [Example 9.14],1600

row,SMILES,IC50 [nM]
1,CC(=O)NC(C)Cc1ccc(C#Cc2cccc(OCc3c[nH]cn3)c2)cc1 (centres unmarked) [Example 9.15],2100
2,CC(=O)NC(C)Cc1ccc(C#Cc2ccc(OCc3ccco3)cc2)cc1 (centres unmarked) [Example 9.16],260
3,CC(=O)NC(C)Cc1ccc(C#Cc2ccc(OCC3CCCCO3)cc2)cc1 (centres unmarked) [Example 9.17],610
4,CCN(CC)CCOc1ccc(C#Cc2ccc(CC(C)NC(C)=O)cc2)cc1 (centres unmarked) [Example 9.18],14900
5,CCOCCOc1ccc(C#Cc2ccc(CC(C)NC(C)=O)cc2)cc1 (centres unmarked) [Example 9.19],280
6,CC(=O)NC(C)Cc1ccc(C#Cc2ccc(OCC3CC3)cc2)cc1 (centres unmarked) [Example 9.20],80
7,CC(=O)NC(C)Cc1ccc(C#Cc2ccc(OCCC3CC3)cc2)cc1 (centres unmarked) [Example 9.21],60
8,CC(=O)NC(C)Cc1ccc(C#Cc2ccc(OCC(F)F)cc2)cc1 (centres unmarked) [Example 9.22],240
9,CC(=O)NC(C)Cc1ccc(C#Cc2ccc(OCCc3ccncc3)cc2)cc1 (centres unmarked) [Example 9.23],400
10,CC(=O)NC(C)Cc1ccc(C#Cc2ccc(OCC3CC3C)cc2)cc1 (centres unmarked) [Example 9.24],200
11,CC(=O)NC(C)Cc1ccc(C#Cc2ccc(OC(C)c3ccncc3)cc2)cc1 (centres unmarked) [Example 9.25],2500
12,CC(=O)NC(C)Cc1ccc(C#Cc2ccc(OCc3ccoc3)cc2)cc1 (centres unmarked) [Example 9.26],250
13,CC(=O)NC(C)Cc1ccc(C#Cc2ccc(OCc3cc(C)on3)cc2)cc1 (centres unmarked) [Example 9.27],640
14,CC(=O)NC(C)Cc1ccc(C#Cc2ccc(OCc3cncs3)cc2)cc1 (centres unmarked) [Example 9.28],690
15,CC(=O)NC(C)Cc1ccc(C#Cc2ccc(OC3CCCOC3)cc2)cc1 (centres unmarked) [Example 9.29],190
16,COCCCOc1ccc(C#Cc2ccc(CC(C)NC(C)=O)cc2)cc1 (centres unmarked) [Example 9.30],230
17,CC(=O)NC(C)Cc1ccc(C#Cc2ccc(OCC3CCOCC3)cc2)cc1 (centres unmarked) [Example 9.31],550
18,CC(=O)NC(C)Cc1ccc(C#Cc2ccc(OCCC(F)(F)F)cc2)cc1 (centres unmarked) [Example 9.32],100
19,CC(=O)NC(C)Cc1ccc(C#Cc2ccc(OCC3(C)COC3)cc2)cc1 (centres unmarked) [Example 9.33],340
20,COCCn1cncc1COc1ccc(C#Cc2ccc(CC(C)NC(C)=O)cc2)cc1 (centres unmarked) [Example 9.34],6400
